Reference: patent publication US10017524B2, “Compound and pharmaceutical composition for neuropsychological disorder or malignant tumor” (KYOTO UNIVERSITY, priority 2012, dated 2018)

Tests used:
[1] = system: retinoblastoma cell lines WERI; assay: Inhibition of growth of cancer cells (Alamar Blue); format: cell-based
Description: (§1) Specifically, the cells were seeded on a 24 Well plate, and the compounds at a predetermined concentration were added. After cultivation for 5 days, the number of cells was calculated by detecting the fluorescence intensity with Alamar Blue. The culture medium containing the compounds was replaced every day. FIGS. 10 to 12 show an example of the results.

[2] = system: phosphorylation of tau protein in the brain; assay: Inhibition of stress-induced phosphorylation of tau protein in the brain; format: in vivo; conditions: mice, 100 mg/kg before stress (ice-cold water 5 minutes), brain tissue western blot
Description: The inhibitory activity of the compounds 1 and 2 on the phosphorylation of tau protein in the brain was evaluated. In the evaluation, a system was used which induced the phosphorylation of tau protein by imposing stress on mice (i.e., bathing the mice in ice-cold water for 5 minutes).

[3] = system: phosphorylation of a threonine residue at position 212 of tau protein by DYRK1A protein; assay: Inhibitory activity on phosphorylation of tau protein in cultured cells expressing tau and DYRK1A (western blot, Thr212); format: cell-based; conditions: phospho-Thr212 tau
Description: The inhibitory activity of the compounds synthesized in the production examples on the phosphorylation of tau protein was evaluated by an evaluation system using the following cultured cells.
The cultured cells that can induce the expressions of tau protein and DYRK1A protein individually and that allow the phosphorylation of the tau protein to be evaluated depending on the activity of the DYRK1A protein were used in the evaluation system. […] Therefore, the inhibitory activity on the phosphorylation of the tau protein can be evaluated by inducing the expressions of both the tau protein and the DYRK1A protein, and evaluating the degree of phosphorylation of a threonine residue at position 212 of the tau protein.
The compounds 1, 4, and 6 to 9 (10 μM) were added to the evaluation system, and the phosphorylation of the tau protein was detected with the antibody that specifically recognizes the phosphorylation of a threonine residue at position 212 of the tau protein. […] The “control” represents the result of adding no compound.
The inhibitory activity of the compounds 1 and 2 on the phosphorylation of tau protein was evaluated in the same manner as the Experimental example 1.
(§2) The “control” represents the result of adding no compound.
The inhibitory activity of the compounds 3, 6, and 9 to 15 on the phosphorylation of tau protein was evaluated in the same manner as the experimental example 1. FIGS. 7 to 9 show an example of the results.

[4] = Intracerebral transferability after caudal vein administration; format: in vivo; conditions: male, Wistar, intravenous, rat, 2 mg/head
Description: The intracerebral transferability of the compound 1 was evaluated under the following conditions. […] In other words, the intracerebral transferability of the compound 1 was confirmed.
Experimental animal: 8-week-old male Wistar rat (about 300 g), caudal vein administration
Administered vehicle: 20% PPG/8% tween 80/saline (2 mL/head)
Compound dosage: 2 mg/head
Sampling time: 3 minutes after administration for plasma; 7 minutes after administration for cerebrospinal fluid

[5] = target: DYRK1A (Homo sapiens, UniProt Q13627); assay: DYRK1A inhibitory capacity in vitro; format: biochemical
Excerpt: as §2

[6] = Oral absorbability; format: in vivo, B6J mouse; conditions: mouse, oral administration, 100 mg/kg, 5% gum arabic, plasma
Description: The oral absorbability of the compound 1 was evaluated under the following conditions.

[7] = Oral absorbability and intracerebral transferability (plasma and brain tissue concentration); format: in vivo; conditions: ICR mouse, 100 mg/kg; for Kp / half-life: male; for Kp: brain tissue / plasma, read-out: Brain tissue/blood ratio (B/P: mL/g); for half-life: plasma and brain tissue, read-out: Half-life in blood and in brain tissue
Description: The oral absorbability and the intracerebral transferability of the compounds 1 and 2 were evaluated under the following conditions. FIG. 6 and Table 1 show an example of the results.
Experimental animal: 7-week-old male ICR mouse, oral administration
Administered vehicle: 0.5% carboxymethylcellulose
Compound dosage: 100 mg/kg
FIG. 6 and Table 1 show an example of the results of measuring a plasma concentration and a brain tissue concentration after oral administration of the compounds 1 and 2. As shown in FIG. 6 and Table 1, the results confirmed that the compounds 1 and 2 had both oral absorbability and intracerebral transferability.

[8] = system: memory and learning disabilities induced by amyloid-β peptide (25-35); assay: Remedial action on memory and learning disabilities induced by amyloid-β peptide (water maze, probe test); format: in vivo, Swiss mice; conditions: mice, amyloid-β icv, 100 mg/kg twice a day
Description: The remedial action of the compound 2 on memory and learning disabilities was evaluated. In the evaluation, amyloid-β peptide was administered into the cerebral ventricles of mice, and an evaluation system that induces memory and learning disabilities was used (Maurice et al., 1996). The tests were performed using 6-week-old male Swiss mice, which were divided into groups of 12 (n=12). Amyloid-β peptide (25-35, sequence: Gly-Ser-Asn-Lys-Gly-Ala-Ile-Ile-Gly-Leu-Met) (SEQ ID NO: 1) or scrambled amyloid-β (25-35, sequence: Ala-Lys-Ile-Gly-Asn-Ser-Ile-Gly-Leu-Met-Gly) (SEQ ID NO: 2) which was used as control peptide, was dissolved in distilled water, and each of the peptide solutions was incubated at 37° C. for 4 days.
The compound 2 for medication was dissolved in DMSO, and then diluted with 0.5% methylcellulose, thereby preparing a 10 mg/mL solution. […]
In order to evaluate a reference memory, water maze was performed three times a day using a circular pool (140 cm in diameter and 40 cm in height) and a platform (10 cm in diameter) between the 8th day and the 12th day of the tests. […] During the recording, the total time the mice spent in one-fourth of the area of the circle, including the place where the platform had been located until the previous day, was recorded. […]

[9] = system: PC-9-GR-high lines; assay: Growth inhibition, microscopic observation; format: cell-based, human; conditions: microscope
[10] = system: human lung adenocarcinoma-derived cell lines (PC-9); assay: Growth inhibition, microscopic observation; format: cell-based; conditions: PC-9 lines, microscope
[11] = system: PC-9-GR-step lines (gefitinib-resistant sub-lines of PC-9); assay: Growth inhibition, microscopic observation; format: cell-based, human; conditions: microscope
[12] = system: MDA-MB-453 human breast cancer cells (triple-negative); assay: Growth inhibition, adherent and non-adherent culture (Alamar Blue); format: cell-based; conditions: MDA-MB-453, cells cultured to prevent adhering
Description: as §1
(§3) In addition, the effect was also confirmed when the target cells were cultured to prevent them from adhering to each other.

[13] = system: MDA-MB-468 human breast cancer cells (triple-negative); assay: as above; format: cell-based; conditions: MDA-MB-468, cells cultured to prevent adhering
Description: as §1, §3

[14] = compounds of 10 μM, cells expressing tau and DYRK1A

CCN1/C(=C/C(C)=O)Sc2ccc3c(c21)CCO3 [Compound 1, (Z)-1-[1-ethyl-7,8-dihydrobenzofuro[4,5-d]thiazol-2(1H)-ylidene]propan-2-one]
inhibitory effect on the growth of the cancer cells [1]: inhibitory effect | inhibition of stress-induced phosphorylation of the tau protein in brain [2]: could inhibit the stress-induced phosphorylation of the tau protein | inhibitory effect on the phosphorylation of the tau protein ([3]; compounds at 0.3 to 10 μM): significant inhibitory effect | inhibitory effect on the phosphorylation of the tau protein [3, 14]: significant inhibitory effect | concentration at 7 min ([4]; cerebrospinal fluid, 7 minutes after administration): 1.88 µM | concentration at 3 min ([4]; plasma, 3 minutes after administration): 13.5 µM | IC50 [5]: 49 nM | oral absorbability [6]: confirmed | Maximum blood concentration [7]: 1900 ng/mL | Maximum brain tissue concentration [7]: 1700 ng/g | Time to maximum concentration in blood and in brain tissue [7]: within 15 minutes | Kp [7]: ~0.9 | half-life [7]: ≤ 1 h

CCN1/C(=C/C(C)=O)Sc2ccc3occc3c21 [Compound 2, (Z)-1-[1-ethyl-7,8-benzofuro[4,5-d]thiazol-2(1H)-ylidene]propan-2-one]
reference memory in water maze (time to reach the platform) ([8]; 8th to 12th day): improved the reduced memory and learning abilities | probe test (time spent around the platform) ([8]; 13th day): improved the reduced memory and learning abilities | inhibition of stress-induced phosphorylation of the tau protein in brain [2]: could inhibit the stress-induced phosphorylation of the tau protein | inhibitory effect on the phosphorylation of the tau protein ([3]; compounds at 0.3 to 10 μM): significant inhibitory effect | IC50 [5]: 40 nM | Maximum blood concentration [7]: 8400 ng/mL | Maximum brain tissue concentration [7]: 8500 ng/g | Time to maximum concentration in blood and in brain tissue [7]: 2 h | Kp [7]: ~1 | half-life [7]: ≥ 4 h

O=C1NC(=S)S/C1=C\c1ccc2c(c1)CCO2 [Compound 4, (Z)-5-[(2,3-dihydrobenzofuran-5-yl)methylene]-2-thioxothiazolidin-4-one]
inhibitory effect on the phosphorylation of the tau protein [3, 14]: inhibitory effect

O=C1NC(=S)S/C1=C\c1ccc2oc3ccccc3c2c1 [Compound 6, (Z)-5-[(dibenzo[b,d]furan-2-yl)methylene]-2-thioxothiazolidin-4-one]
inhibitory effect on the phosphorylation of the tau protein [3, 14]: significant inhibitory effect

N=C1NC(=O)/C(=C/c2ccc3c(c2)CCO3)S1 [Compound 7, (Z)-5-[(2,3-dihydrobenzofuran-5-yl)methylene]-2-iminothiazolidin-4-one]
inhibitory effect on the phosphorylation of the tau protein [3, 14]: significant inhibitory effect

N=C1NC(=O)/C(=C/c2ccc3occc3c2)S1 [Compound 8, (Z)-5-[(benzofuran-5-yl)methylene]-2-iminothiazolidin-4-one]
inhibitory effect on the phosphorylation of the tau protein [3, 14]: significant inhibitory effect

N=C1NC(=O)/C(=C/c2ccc3oc4ccccc4c3c2)S1 [Compound 9, (Z)-5-[(dibenzo[b,d]furan-2-yl)methylene]-2-iminothiazolidin-4-one]
inhibitory effect on the phosphorylation of the tau protein [3, 14]: inhibitory effect

CCN1/C(=C/C(C)=O)Sc2ccc3oc4cc(C)c(C)cc4c3c21 [Compound 10, (Z)-1-(8,9-dimethyl-1-ethylbenzo[2,3]benzofuro[4,5-d]thiazol-2(1H)-ylidene)propan-2-one]
inhibitory effect on the phosphorylation of the tau protein [3, 14]: inhibitory effect

CCN1/C(=C/C(C)=O)Sc2ccc3oc4cc(C)ccc4c3c21 [Compound 11, (Z)-1-(1-ethyl-8-methylbenzo[2,3]benzofuro[4,5-d]thiazol-2(1H)-ylidene)propan-2-one]
inhibitory effect on the phosphorylation of the tau protein [3, 14]: inhibitory effect

CCN1/C(=C/C(C)=O)Sc2ccc3oc4ccc(C)cc4c3c21 [Compound 12, (Z)-1-(1-ethyl-9-methylbenzo[2,3]benzofuro[4,5-d]thiazol-2(1H)-ylidene)propan-2-one]
apoptosis-inducing activity on the cancer cells [9]: excellent apoptosis-inducing activity | inhibitory effect on the phosphorylation of the tau protein [3, 14]: inhibitory effect | apoptosis-inducing activity on the cancer cells [10]: excellent apoptosis-inducing activity | apoptosis-inducing activity on the cancer cells [11]: excellent apoptosis-inducing activity

CCN1/C(=C/C(C)=O)Sc2ccc3oc4cc(Cl)ccc4c3c21 [Compound 13, (Z)-1-(8-chloro-1-ethylbenzo[2,3]benzofuro[4,5-d]thiazol-2(1H)-ylidene)propan-2-one]
inhibitory effect on the phosphorylation of the tau protein [3, 14]: inhibitory effect

CCN1/C(=C/C(C)=O)Sc2ccc3oc4ccc(Cl)cc4c3c21 [Compound 14, (Z)-1-(9-chloro-1-ethylbenzo[2,3]benzofuro[4,5-d]thiazol-2(1H)-ylidene)propan-2-one]
inhibitory effect on the phosphorylation of the tau protein [3, 14]: inhibitory effect

O=C1NC(=S)N/C1=C\c1ccc2oc3ccccc3c2c1 [Compound 15, (Z)-5-[(dibenzo[b,d]furan-2-yl)methylene]-2-thioxoimidazolidin-4-one]
inhibitory effect on the phosphorylation of the tau protein [3, 14]: inhibitory effect | inhibitory effect on the anchorage-independent growth [12]: inhibitory effect | inhibitory effect on the anchorage-independent growth [13]: inhibitory effect
